Results: patent publication US20100035755A1, “METHOD OF CONTROLLING WEEDS IN A TURF GRASS BY USING SULFONYLUREA COMPOUNDS” (Moghu Research Center Ltd., priority 2008, published 2010)

How the values were obtained:
[1] = tested on: Cyperus amuricus; assay: Weed spectrum, greenhouse pot test; format: in vivo; conditions: two weeks after application
Source text: (§1) To a rectangular plastic pot (surface area of 300 cm^2) in which sandy loam and mixed top soil (Boo-Nong Top Soil No. 3, for horticultural use) are filled in 1:1 ratio, eight different kinds of weed seeds including Poa annua and Digitaria sanguinalis as poaceae weed, Cyperus amuricus as cyperaceae weeds and Trifolium repens, Kummerowia striata, fleabane, Veronica officinalis and Portulaca oleracea as broadleaf weeds were sewn (50 to 100 seeds per each weed). These weeds are representative examples of the weeds which typically thrive in a turf grass field.
(§2) The pot was kept in a greenhouse which was maintained at 25˜30° C. for daytime and 15˜25° C. for nighttime, respectively, and irrigation was carried out regularly. Fourteen days after seeding, when the turf grass and the weeds reached approximately at three-leaf stage, the weed seeds were again sewn in separate two pots or “Test chemical” and “Control chemical” were applied in the same manner as the method described above. In this regard, when plants were cultivated for two weeks and then the chemical application was carried out, it is designated as “post-emergence” treatment. On the other than, when the seeding was carried right before the chemical application, it is designated as “pre-emergence” treatment. Preparation of a chemical solution, application method, etc. are the same as above described for evaluation of turf grass selectivity. Two weeks after the chemical application, efficacy of the chemicals for each type of the weeds was evaluated (visual evaluation) based on 0 to 100 scale (i.e., 0 indicates no efficacy and 100 indicates complete weed control).

[2] = tested on: Trifolium repens; assay: Weed spectrum, greenhouse pot test; format: in vivo; conditions: two weeks after application
Source text: as §1, §2

[3] = tested on: Zoysia japonica; assay: Turf grass selectivity, greenhouse pot test; format: in vivo; conditions: for phytotoxicity (visual assessment 0-10): Zoysia japonica
Source text: (§3) Turf mats of Zoysia grass, bentgrass, Kentucky bluegrass, or perennial rye grass known as cool season turfgrass or western grass were purchased and cut into a piece having 10 cm×20 cm size. Then, each piece was transplanted in a rectangular plastic pot (surface area of 300 cm^2) in which sandy loam and mixed top soil (Boo-Nong Top Soil No. 3, for horticultural use) are filled in 1:1 ratio. After the transplantation, the grasses were cut once a week to maintain the blade height at 0.5-1.0 cm and cultivated for one month in a green house of which temperature was kept at 25˜30° C. for daytime and 15˜25° C. for nighttime, respectively. Then, the ‘test chemical’ of the above Examples 1 and 2 or ‘control chemical’ was applied thereto in an amount of 400, 200, 100, 50, 25, 12, 6, 3 g ai/ha. As a “control chemical”, pyrazolsulfuron ethyl wettable agent (manufactured by Dongbu Fine Chemicals; herein after, referred to as ‘control chemical No. 1’) and flazasulfuron (manufactured by Dongbu HiTek; herein after, referred to as ‘control chemical No. 2’), both sulfonylurea herbicides for a turf grass, were used. Application was carried out by using a track sprayer (R&D Sprayer, USA) equipped with Teejet 8002 nozzle (Spraying Systems Co., USA), and the application amount was adjusted to 2,000 L/ha, which is a typical application amount for a golf course in Korea. Application solution was prepared by diluting the “test chemical” or the “control chemical” with tap water. […] The test was repeated three times in a random arrangement and the results are given in average value of each test (see Table 2 below).

[4] = tested on: Perennial rye grass; assay: Turf grass selectivity, greenhouse pot test; format: in vivo
Source text: as §3

[5] = tested on: Dandelion; assay: Weed spectrum, greenhouse pot test; format: in vivo; conditions: two weeks after application
[6] = tested on: Bentgrass; assay: Turf grass selectivity, greenhouse pot test; format: in vivo, Agrostris palustris
Source text: as §3

[7] = tested on: Kentucky bluegrass; assay: Turf grass selectivity, greenhouse pot test; format: in vivo, Poa pratensis
Source text: as §3

## COc1cc(OC)nc(NC(=O)NS(=O)(=O)c2ncccc2C(F)(F)F)n1 [Control chemical No. 2, Flazasulfuron, reference compound]
[1]; Post-emergence, 12 g ai/ha
  efficacy (0-100 scale): 60
[1]; Post-emergence, 25 g ai/ha
  efficacy (0-100 scale): 70
[1]; Post-emergence, 50 g ai/ha
  efficacy (0-100 scale): 80
[1]; Post-emergence, 100 g ai/ha
  efficacy (0-100 scale): 80
[1]; Pre-emergence, 12 g ai/ha
  efficacy (0-100 scale): 40
[1]; Pre-emergence, 25 g ai/ha
  efficacy (0-100 scale): 70
[1]; Pre-emergence, 50 g ai/ha
  efficacy (0-100 scale): 80
[1]; Pre-emergence, 100 g ai/ha
  efficacy (0-100 scale): 100
[2]; Post-emergence, 12 g ai/ha
  efficacy (0-100 scale): 80
[2]; Post-emergence, 25 g ai/ha
  efficacy (0-100 scale): 100
[2]; Post-emergence, 50 g ai/ha
  efficacy (0-100 scale): 100
[2]; Post-emergence, 100 g ai/ha
  efficacy (0-100 scale): 100
[2]; Pre-emergence, 12 g ai/ha
  efficacy (0-100 scale): 70
[2]; Pre-emergence, 25 g ai/ha
  efficacy (0-100 scale): 80
[2]; Pre-emergence, 50 g ai/ha
  efficacy (0-100 scale): 100
[2]; Pre-emergence, 100 g ai/ha
  efficacy (0-100 scale): 100
[3]; 50 g ai/ha or less
  safety to Zoysia japonica: safe
[3]; 3 g ai/ha, 2 weeks
  phytotoxicity (visual assessment 0-10): 0
[3]; 3 g ai/ha, 4 weeks
  phytotoxicity (visual assessment 0-10): 0
[3]; 6 g ai/ha, 2 weeks
  phytotoxicity (visual assessment 0-10): 0
[3]; 6 g ai/ha, 4 weeks
  phytotoxicity (visual assessment 0-10): 0
[3]; 12 g ai/ha, 2 weeks
  phytotoxicity (visual assessment 0-10): 0
[3]; 12 g ai/ha, 4 weeks
  phytotoxicity (visual assessment 0-10): 0
[3]; 25 g ai/ha, 2 weeks
  phytotoxicity (visual assessment 0-10): 0
[3]; 25 g ai/ha, 4 weeks
  phytotoxicity (visual assessment 0-10): 0
[3]; 50 g ai/ha, 2 weeks
  phytotoxicity (visual assessment 0-10): 1
[3]; 50 g ai/ha, 4 weeks
  phytotoxicity (visual assessment 0-10): 1
[3]; 100 g ai/ha, 2 weeks
  phytotoxicity (visual assessment 0-10): 2
[3]; 100 g ai/ha, 4 weeks
  phytotoxicity (visual assessment 0-10): 2
[3]; 200 g ai/ha, 2 weeks
  phytotoxicity (visual assessment 0-10): 4
[3]; 200 g ai/ha, 4 weeks
  phytotoxicity (visual assessment 0-10): 3
[3]; 400 g ai/ha, 2 weeks
  phytotoxicity (visual assessment 0-10): 7
[3]; 400 g ai/ha, 4 weeks
  phytotoxicity (visual assessment 0-10): 6
[4]; 3 g ai/ha, 2 weeks
  phytotoxicity (visual assessment 0-10): 10
[4]; 3 g ai/ha, 4 weeks
  phytotoxicity (visual assessment 0-10): 10
[4]; 6 g ai/ha, 2 weeks
  phytotoxicity (visual assessment 0-10): 10
[4]; 6 g ai/ha, 4 weeks
  phytotoxicity (visual assessment 0-10): 10
[4]; 12 g ai/ha, 2 weeks
  phytotoxicity (visual assessment 0-10): 10
[4]; 12 g ai/ha, 4 weeks
  phytotoxicity (visual assessment 0-10): 10
[4]; 25 g ai/ha, 2 weeks
  phytotoxicity (visual assessment 0-10): 10
[4]; 25 g ai/ha, 4 weeks
  phytotoxicity (visual assessment 0-10): 10
[4]; 50 g ai/ha, 2 weeks
  phytotoxicity (visual assessment 0-10): 10
[4]; 50 g ai/ha, 4 weeks
  phytotoxicity (visual assessment 0-10): 10
[4]; 100 g ai/ha, 2 weeks
  phytotoxicity (visual assessment 0-10): 10
[4]; 100 g ai/ha, 4 weeks
  phytotoxicity (visual assessment 0-10): 10
[4]; 200 g ai/ha, 2 weeks
  phytotoxicity (visual assessment 0-10): 10
[4]; 200 g ai/ha, 4 weeks
  phytotoxicity (visual assessment 0-10): 10
[4]; 400 g ai/ha, 2 weeks
  phytotoxicity (visual assessment 0-10): 10
[4]; 400 g ai/ha, 4 weeks
  phytotoxicity (visual assessment 0-10): 10
[5]; Post-emergence, 12 g ai/ha
  efficacy (0-100 scale): 10
[5]; Post-emergence, 25 g ai/ha
  efficacy (0-100 scale): 30
[5]; Post-emergence, 50 g ai/ha
  efficacy (0-100 scale): 40
[5]; Post-emergence, 100 g ai/ha
  efficacy (0-100 scale): 50
[5]; Pre-emergence, 12 g ai/ha
  efficacy (0-100 scale): 30
[5]; Pre-emergence, 25 g ai/ha
  efficacy (0-100 scale): 40
[5]; Pre-emergence, 50 g ai/ha
  efficacy (0-100 scale): 50
[5]; Pre-emergence, 100 g ai/ha
  efficacy (0-100 scale): 70
[6]; 3 g ai/ha, 2 weeks
  phytotoxicity (visual assessment 0-10): 10
[6]; 3 g ai/ha, 4 weeks
  phytotoxicity (visual assessment 0-10): 10
[6]; 6 g ai/ha, 2 weeks
  phytotoxicity (visual assessment 0-10): 10
[6]; 6 g ai/ha, 4 weeks
  phytotoxicity (visual assessment 0-10): 10
[6]; 12 g ai/ha, 2 weeks
  phytotoxicity (visual assessment 0-10): 10
[6]; 12 g ai/ha, 4 weeks
  phytotoxicity (visual assessment 0-10): 10
[6]; 25 g ai/ha, 2 weeks
  phytotoxicity (visual assessment 0-10): 10
[6]; 25 g ai/ha, 4 weeks
  phytotoxicity (visual assessment 0-10): 10
[6]; 50 g ai/ha, 2 weeks
  phytotoxicity (visual assessment 0-10): 10
[6]; 50 g ai/ha, 4 weeks
  phytotoxicity (visual assessment 0-10): 10
[6]; 100 g ai/ha, 2 weeks
  phytotoxicity (visual assessment 0-10): 10
[6]; 100 g ai/ha, 4 weeks
  phytotoxicity (visual assessment 0-10): 10
[6]; 200 g ai/ha, 2 weeks
  phytotoxicity (visual assessment 0-10): 10
[6]; 200 g ai/ha, 4 weeks
  phytotoxicity (visual assessment 0-10): 10
[6]; 400 g ai/ha, 2 weeks
  phytotoxicity (visual assessment 0-10): 10
[6]; 400 g ai/ha, 4 weeks
  phytotoxicity (visual assessment 0-10): 10
[7]; 3 g ai/ha, 2 weeks
  phytotoxicity (visual assessment 0-10): 10
[7]; 3 g ai/ha, 4 weeks
  phytotoxicity (visual assessment 0-10): 10
[7]; 6 g ai/ha, 2 weeks
  phytotoxicity (visual assessment 0-10): 10
[7]; 6 g ai/ha, 4 weeks
  phytotoxicity (visual assessment 0-10): 10
[7]; 12 g ai/ha, 2 weeks
  phytotoxicity (visual assessment 0-10): 10
[7]; 12 g ai/ha, 4 weeks
  phytotoxicity (visual assessment 0-10): 10
[7]; 25 g ai/ha, 2 weeks
  phytotoxicity (visual assessment 0-10): 10
[7]; 25 g ai/ha, 4 weeks
  phytotoxicity (visual assessment 0-10): 10
[7]; 50 g ai/ha, 2 weeks
  phytotoxicity (visual assessment 0-10): 10
[7]; 50 g ai/ha, 4 weeks
  phytotoxicity (visual assessment 0-10): 10
[7]; 100 g ai/ha, 2 weeks
  phytotoxicity (visual assessment 0-10): 10
[7]; 100 g ai/ha, 4 weeks
  phytotoxicity (visual assessment 0-10): 10
[7]; 200 g ai/ha, 2 weeks
  phytotoxicity (visual assessment 0-10): 10
[7]; 200 g ai/ha, 4 weeks
  phytotoxicity (visual assessment 0-10): 10
[7]; 400 g ai/ha, 2 weeks
  phytotoxicity (visual assessment 0-10): 10
[7]; 400 g ai/ha, 4 weeks
  phytotoxicity (visual assessment 0-10): 10
